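Method: 48-hour compound exposure of cells in 96-well plates, five concentrations, linear interpolation of endpoints. Here, GI50 denotes the concentration required for 50% inhibition of growth. At the TGI there is no net growth.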
What was measured:
Assay in all cases: NCI tumour cell line growth inhibition, 48 h
[1] = system: MOLT-4 leukemia
[2] = system: RPMI-8226 leukemia
[3] = system: MALME-3M melanoma
[4] = system: RXF 393 renal
[5] = system: HCC-2998 colon
[6] = system: HT29 colon
[7] = system: IGROV1 ovarian
[8] = system: HL-60(TB) leukemia
[9] = system: HOP-92 NSCLC
[10] = system: PC-3 prostate

Row | Compound | TGI [1] | TGI [2] | TGI [3] | TGI [4] | TGI [5] | TGI [6] | TGI [7] | TGI [8] | TGI [9] | TGI [10] | GI50 [2] | GI50 [3] | GI50 [4] | GI50 [5] | GI50 [6] | GI50 [10] | GI50 [7] | GI50 [1] | GI50 [9] | GI50 [8]
1 | O=S1c2ccccc2NC(c2ccc3ccccc3c2)CC1c1ccccc1 (stereo not drawn) | 70.3 µM | 60.8 µM | > 100 µM | 30.5 µM | 36 µM | 49.6 µM | 40.5 µM | 55.3 µM |  |  |  |  |  |  |  |  |  |  |  | 
2 | CCOC(=O)C(=O)Nc1ccccc1OCC | > 100 µM | > 100 µM | > 100 µM | > 100 µM | > 100 µM | > 100 µM | > 100 µM | > 100 µM | > 100 µM |  |  |  |  |  |  |  |  |  |  | 
3 | O=C1CCNC(=O)NC1 | 56.6 µM | > 100 µM | > 100 µM | > 100 µM |  | > 100 µM | > 100 µM | > 100 µM | > 100 µM |  |  |  |  |  |  |  |  |  |  | 
4 | Oc1ccc2ccccc2c1N=Nc1ccc(Cl)cc1 | > 100 µM | > 100 µM | > 100 µM | > 100 µM |  | > 100 µM | > 100 µM | > 100 µM | > 100 µM | > 100 µM |  |  |  |  |  |  |  |  |  | 
5 | O=C(O)c1cn(C2CC2)c2cc(N3CCNCC3)c(F)cc2c1=O |  | > 100 µM | > 100 µM | > 100 µM | > 100 µM | > 100 µM | > 100 µM |  |  | > 100 µM | > 100 µM | 74.6 µM | > 100 µM | 98 µM | > 100 µM | > 100 µM | > 100 µM |  |  | 
6 | O=C(Oc1ccccc1Cl)c1ccccc1Nc1cccc(C(F)(F)F)c1 | 14.6 µM | 54.2 µM |  | 43.9 µM | 26.7 µM | > 100 µM | > 100 µM |  | 38.2 µM | > 100 µM | 18.4 µM |  | 13.9 µM | 12.6 µM | 30 µM | 26 µM | 28 µM | 3.89 µM | 5.81 µM | 
7 | O=C1CC(c2ccsc2)c2snc(-c3ccc(Cl)cc3)c2N1 (stereo not drawn) |  | 5.44 µM | > 100 µM | 50.8 µM | > 100 µM | > 100 µM | > 100 µM | 3.33 µM | 81.8 µM | > 100 µM | 0.6 µM | 2.72 µM | 3.49 µM | 1.99 µM | 0.4 µM | 2.05 µM | 2.87 µM |  | 3.87 µM | 1.11 µM
8 | COc1ccc(-c2nc(-c3ccccn3)c(-c3ccccn3)n2CC(C)C)cc1OC1CCCC1 | 61.6 µM | 80.5 µM |  |  |  | 134 µM | > 165 µM | 58.8 µM |  | 83.8 µM | 27.4 µM |  |  |  | 35.3 µM | 11.1 µM | 11.5 µM | 18 µM |  | 21.2 µM
9 | COC1C(CO)OC(n2c3c(Cl)cccc3c3c4c(c5c6cccc(Cl)c6[nH]c5c32)C(=O)NC4=O)C(O)C1O (stereo not drawn) | > 100 µM | > 18.7 µM | 1.12 µM | 4.95 µM | > 20 µM | > 47.3 µM | 7.76 µM |  | 4.88 µM | > 100 µM |  |  |  |  |  |  |  |  |  | 
10 | COc1cc2cnc(-c3ccccc3)cc2cc1OC | 50.7 µM | 36 µM | 60.4 µM | > 100 µM |  | 45.5 µM | 49.5 µM | 59.7 µM | 65.9 µM | 77.5 µM |  |  |  |  |  |  |  |  |  | 
11 | Oc1ccc(Oc2cnc3cc(Cl)ccc3n2)cc1 | > 100 µM | > 100 µM | > 100 µM | > 100 µM | 61.6 µM | > 100 µM |  | > 100 µM | > 100 µM | > 100 µM | 16.7 µM | 34.7 µM | 46.6 µM | 24.1 µM | 51.7 µM | 23.6 µM |  | 14.6 µM | 37.3 µM | 2.25 µM
12 | O=C1CCCC(O)=C1SC1=C(O)CCCC1=O | > 100 µM | > 100 µM | > 100 µM | > 100 µM | > 100 µM | > 100 µM | > 100 µM | > 100 µM | > 100 µM |  |  |  |  |  |  |  |  |  |  | 
13 | CN1C(=O)CCC1c1ccc2c(c1)oc(=O)n2C (stereo not drawn) | > 100 µM | > 100 µM | > 100 µM | > 100 µM | > 100 µM | > 100 µM | > 100 µM | > 100 µM |  |  |  |  |  |  |  |  |  |  |  | 
14 | O=C(Oc1ccc2c(-c3ccccc3)c(C(=O)Nc3ccc(Cl)cc3)c(=O)oc2c1)c1ccccc1 | > 100 µM | > 100 µM | > 100 µM | > 100 µM |  | > 100 µM | > 100 µM | > 100 µM |  |  |  |  |  |  |  |  |  |  |  | 
15 | CN(C)c1ccc2cc3ccc(N(C)C)cc3nc2c1 |  | 4.09 µM | 10.1 µM | 22.7 µM | 2.64 µM | 1.81 µM | 17.3 µM | 3.66 µM | 20 µM | 9.48 µM |  |  |  |  |  |  |  |  |  | 
16 | Cc1cc(NCc2cc(Nc3ccnc4cc(Cl)ccc34)ccc2F)nc(N2CCSCC2)n1 | 7.07 µM | 3.96 µM |  | 3.35 µM | 4.04 µM | 4.37 µM | 4.42 µM |  | 2.32 µM | 4.35 µM | 1.42 µM |  | 1.52 µM | 1.96 µM | 1.77 µM | 1.5 µM | 1.83 µM | 2.12 µM | 0.998 µM | 
17 | NC(CCc1ncc(-c2ccccc2)s1)C(=O)O (stereo not drawn) | > 100 µM | > 100 µM | > 100 µM | > 100 µM | > 100 µM | > 100 µM | > 100 µM | > 100 µM | > 100 µM |  |  |  |  |  |  |  |  |  |  | 
18 | COc1ccc2c(c1)C(=O)c1c-2c(N2CCN(C(=O)CNCCN(C)C)CC2)nc2ccccc12 | 5.98 µM | 3.84 µM | 4.94 µM |  | 2.98 µM | 1.25 µM | 2.69 µM | 6.31 µM | 4.15 µM | 15.1 µM | 1.67 µM | 1.96 µM |  | 1.37 µM | 0.362 µM | 3.48 µM | 1.11 µM | 1.47 µM | 1.57 µM | 2.4 µM
19 | O=c1ccn(C2(CO)C=C(CO)C(O)C2O)c(=O)[nH]1 (stereo not drawn) | > 25.7 µM | > 25.7 µM | > 25.7 µM | > 25.7 µM | > 25.7 µM |  | > 25.7 µM | > 25.7 µM |  |  |  |  |  |  |  |  |  |  |  | 

From PubChem BioAssay (NCI)
